Measurements published in publication PMC11785791, “Cryo-EM structure of the calcium-sensing receptor complexed with the kokumi substance γ-glutamyl-valyl-glycine” (Scientific Reports, 2025).
Substitutions are numbered along the chain they refer to. *1 amine or outer side, *2 acyl side, *3 side chain or, on linkers, in order; H or OH if unused. Where a SMILES comes first, the peptide text is derived from it. γGlu = O=C(O)[CH](CCC(=O)[*:2])N[*:1]

Legend:
[1] = target: T1, human CaSR E297A mutant (Homo sapiens, UniProt P41180, E297A); assay: Calcium mobilization assay, CaSR E297A mutant; assay type: cell-based; conditions: for Response in calcium mobilization assay: in words
T1 construct: (N); expressed in transfected cells; host or cells: PEAKrapid cells (ATCC), pcDNA 3.1, transient transfection
T1 sequence (P41180 20-1078 E297A): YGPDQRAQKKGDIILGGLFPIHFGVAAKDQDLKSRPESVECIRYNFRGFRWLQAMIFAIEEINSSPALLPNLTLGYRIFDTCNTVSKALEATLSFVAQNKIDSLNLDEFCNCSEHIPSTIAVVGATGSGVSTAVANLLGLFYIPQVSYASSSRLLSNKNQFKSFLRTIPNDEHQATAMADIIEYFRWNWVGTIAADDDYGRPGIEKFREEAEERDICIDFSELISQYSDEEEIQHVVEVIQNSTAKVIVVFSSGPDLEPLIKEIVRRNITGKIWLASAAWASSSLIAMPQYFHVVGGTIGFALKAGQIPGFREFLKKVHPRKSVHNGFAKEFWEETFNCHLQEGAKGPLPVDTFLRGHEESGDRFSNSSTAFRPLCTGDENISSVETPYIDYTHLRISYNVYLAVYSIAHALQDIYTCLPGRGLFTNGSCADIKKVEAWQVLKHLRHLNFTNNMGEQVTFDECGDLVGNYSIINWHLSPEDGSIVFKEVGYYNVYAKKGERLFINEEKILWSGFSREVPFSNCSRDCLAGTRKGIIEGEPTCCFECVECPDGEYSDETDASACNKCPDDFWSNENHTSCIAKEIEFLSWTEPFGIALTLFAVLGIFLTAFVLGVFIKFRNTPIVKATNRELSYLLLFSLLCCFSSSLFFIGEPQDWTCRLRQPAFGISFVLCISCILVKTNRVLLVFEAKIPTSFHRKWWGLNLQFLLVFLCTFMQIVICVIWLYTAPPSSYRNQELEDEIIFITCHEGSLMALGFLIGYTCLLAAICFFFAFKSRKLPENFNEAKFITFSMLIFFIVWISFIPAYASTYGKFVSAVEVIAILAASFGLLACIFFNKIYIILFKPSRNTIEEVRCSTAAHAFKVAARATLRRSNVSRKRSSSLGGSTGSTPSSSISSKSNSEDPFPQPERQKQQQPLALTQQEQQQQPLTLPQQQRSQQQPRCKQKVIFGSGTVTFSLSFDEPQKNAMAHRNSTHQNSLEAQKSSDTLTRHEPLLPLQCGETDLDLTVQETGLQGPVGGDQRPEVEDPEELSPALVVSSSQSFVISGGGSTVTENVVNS
Procedure: (§1) The CaSR receptor responsiveness was assessed by using PEAK^rapid cells (ATCC, Manassas, VA, USA) transiently transfected with the receptor DNA by the method reported by Kitajima et al.[6]. Briefly, human CaSR or its mutant cDNA with a signal sequence (MAFYSCCWVLLALTWHTSA) followed by FLAG-tag (DYKDDDDK) were inserted into pcDNA 3.1 expression vectors in Opti-MEM I medium (Thermo Fisher Scientific), mixed with FuGENE 6 (Roche), and poured onto PEAK^rapid cells grown at a submaximal concentration. After culturing for 24 h in 96-well plates, the cells were incubated with 5 µM Calcium-5 solution (Calcium-5 assay kit, Molecular Devices) for 45–60 min, and measurements were performed using a plate reader (FDSS/µCELL, Hamamatsu Photonics, Shizuoka, Japan) and its associated software. The activation of CaSR expressed in cells increases the intracellular Ca^2+ concentration, which is measured using a Ca^2+-sensitive dye. The binding of Ca^2+ to the Ca^2+-sensitive dye increases dye fluorescence, with excitation at 485 nm and emission at 525 nm. Test compounds were dissolved and administered in the assay buffer (146 mM NaCl, 1 mM MgSO4, 20 mM HEPES, 1 mM CaCl2, 2.5 mM probenecid, and 1.39 mM glucose, pH 7.4). Transiently transfected cells were challenged with compounds and compared with the vehicle alone and/or mock-transfected cells. The concentration dependence of the fluorescence intensity (influx of Ca^2+) was analyzed using the plate reader at 1 s intervals for 180 s. For the dose–response curve calculations, peak fluorescence responses after the addition of compounds were corrected for, normalized to the background fluorescence (ΔF/F = –F − F0)/F0), and baseline noise was subtracted. Dose–response curves were calculated by non-linear regression using GraphPad PRISM 8.0.

[2] = target: T2, human CaSR R66E mutant (Homo sapiens, UniProt P41180, R66E); assay: Calcium mobilization assay, CaSR R66E mutant; assay type: cell-based; conditions: for Response in calcium mobilization assay: in words
T2 construct: (N); expressed in transfected cells; host or cells: PEAKrapid cells (ATCC), pcDNA 3.1, transient transfection
T2 sequence (P41180 20-1078 R66E): T1 sequence (P41180 20-1078 E297A) with R47E, A278E
Procedure: as §1

| Response in calcium mobilization assay [1] | Response in calcium mobilization assay [2] | Emax (% of wild-type values) [1] | EC50 ([1]; mean ± s.e.m., n = 3) | Emax (% of wild-type values) [2] | EC50 ([2]; mean ± s.e.m., n = 3) | Structure (SMILES) |
| --- | --- | --- | --- | --- | --- | --- |
| no response | no response | – | – | – | – | N[C@@H](Cc1ccc(O)cc1)C(=O)O [L-Tyr, L-tyrosine] |
| – | – | 86.0 % of WT | 6.58 ± 0.3 mM | 105.0 % of WT | 3.47 ± 0.4 mM | [Ca+2].[Cl-].[Cl-] [CaCl2] |
| no response | no response | – | – | – | – | CC(C)[C@H](NC(=O)CC[C@H](N)C(=O)O)C(=O)O [γ-EV, γ-glutamyl-valine] |

| Structure (SMILES) | Response in calcium mobilization assay [1] | Response in calcium mobilization assay [2] | Emax (% of wild-type values) [1] | EC50 ([1]; mean ± s.e.m., n = 3) | Emax (% of wild-type values) [2] | EC50 ([2]; mean ± s.e.m., n = 3) |
| --- | --- | --- | --- | --- | --- | --- |
| CC(C)C(NC(=O)CCC(N)C(=O)O)C(=O)NCC(=O)O (stereo not drawn) [γ-EVG, γ-glutamyl-valyl-glycine] (γGlu-Val-Gly-OH; configuration not given here) | greatly reduced the response | completely abolished the activity | – | – | – | – |
